Results on one substance are retold here after patent publication US20250352981A1, “PHOSPHOROUS BORON-BONDED COMPOUNDS FOR CAPTURING, STORING AND/OR UTILIZING CARBON DIOXIDE AND RELATED PRODUCTS COMPOSITIONS METHODS AND SYSTEMS” (California Institute of Technology, priority 2024, published 2025).

Test [1] is described as follows: CO2 gas bubbled through phosphido-borane salt in THF, NMR analysis. The note with it: CO2 at 1 atm, room temperature. As to the method:
Here 0.2218 g of the resulting phosphido-borane was dissolved in 3 ml of tetrahydrofuran (THF) in a 10 ml valve. Here 2 ml of THF was used to dissolve 0.1856 g of lithium bis(trimethylsilyl)amide (LiHMDS). The solution of LiHMDS was added drop wise to the solution of Li[Ph2PBH3] to minimize side reactions.
CO2 gas was then bubbled through lithiated anionic phosphido-borane salt at 1 atm and room temperature for about 10 mins to saturate it with CO2.
A typical one pot procedure for preparing the CO2 adducts was adding a solution of Ph2PHBH3 (5.314 mmol, in 4 ml of THF) to solution of MHMDs (5.314 mmol, in 4 ml of THF) dropwisely. An aliquot of the resulting was analyzed with the nmr to confirm the complete formation of M(Ph2PBH3) salt. The bulk solution was then saturated with CO2 gas under standard atmospheric pressure and temperature. The product was then crushed out with hexanes resulting in a whitish precipitate. Yield 98.5%

A short description of test [2]: DFT transition state barrier for CO2 binding. The note with it: Li+ coordinated to a CO2 oxygen and the hydrides of BH3−. As for the experimental part:
(§1) All Density Functional Theory calculations were performed using the Jaguar v10.9 software from Schrodinger Inc. All calculations utilized the M06-2X meta-GGA functional with the D3 empirical correction for London Dispersion forces.^21, 22
(§2) All atoms were described by the 6-311G**++ Pople basis set,^23 augmented with polarization and diffuse functions.
(§3) All calculations included a continuum solvent treatment described by the Polarizable Continuum Model (CPCM).^24
(§4) Unless otherwise noted, we used solvent parameters matching tetrahydrofuran (dielectric constant=7.6, probe radius=2.52).
(§5) Vibrational frequency calculations were performed to confirm that all geometries are true minima (no negative eigenmodes of the Hessian) and to compute thermochemical properties such as enthalpy (H), entropy (S), and free energies (G) at 298.15 K. Because librational modes are hindered in solvent media, we corrected our free energies by reducing translational and rotational entropy modes by 50%.

Test [3] is described as follows: DFT-predicted CO2 binding free energy and charge/bond-order analysis of phosphido-boranes. As to the method: as §1, §2, §3, §4, §5

“anionic diphenylphosphido-borane [BoPh 4]”: the “CO2 binding observed in experiment” value in test [1] (listed as LiPh2PBH3) is listed as “binds successfully with the CO2 molecule”; in test [1] (listed as lithiated anionic phosphido-borane salt), “formation of P—CO2 adducts”. In test [2], the “reduction of ΔG‡ relative to Na+” value is around 2 kcal/mol. Besides, the “increase in binding energy on increasing counterion distance” value in test [3] (Li+ distance from the O—BH3 pocket increased by 0.35 Å) is given as “+5.9 kcal”. Also, in test [3] (explicit THF solvation vs continuum), the “increase of overall ΔG by explicit solvation” value is listed as “+2.9 kcal/mol”.
